Test results from PMC11951083, “Highly Specific Miniaturized Fluorescent Monoacylglycerol Lipase Probes Enable Translational Research” (Journal of the American Chemical Society, 2025).
Read-outs that look alike come from different tables or passages of the source.

Experiments:
GSK3beta (h) = GSK3beta (h) (Homo sapiens, UniProt P49841); test: GSK3beta (h); conditions: read-out: Inhibition GSK3beta (h)
cMAGL = target: T1, cMAGL (Macaca fascicularis, UniProt A0A2K5V664); test: Native MS (RapidFire) 2-AG substrate assay, purified cynomolgus monkey MAGL; type: biochemical
T1 sequence (A0A2K5V664 11-297): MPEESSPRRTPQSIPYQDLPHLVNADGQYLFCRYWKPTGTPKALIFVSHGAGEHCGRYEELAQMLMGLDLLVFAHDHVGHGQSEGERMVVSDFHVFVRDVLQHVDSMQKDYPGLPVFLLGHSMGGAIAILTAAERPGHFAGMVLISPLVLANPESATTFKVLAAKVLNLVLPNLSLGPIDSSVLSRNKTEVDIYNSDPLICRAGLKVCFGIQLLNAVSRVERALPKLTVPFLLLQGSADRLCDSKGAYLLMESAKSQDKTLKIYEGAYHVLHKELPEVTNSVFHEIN
Description: In vitro MAGL Inhibition Assay
Compounds were profiled for MAGL inhibitory activity by determining the enzymatic activity by following the hydrolysis of the natural substrate 2-arachidonoylglycerol (2-AG), resulting in arachidonic acid, which can be followed by mass spectrometry. The 2-AG assay was carried out in 384 well assay plates (PP, Greiner Cat# 784201) in a total volume of 20 µL. Compound dilutions were made in 100% DMSO (VWR Chemicals 23500.297) in a polypropylene plate in 3-fold dilution steps to give a final concentration range in the assay from 12.5 µM to 0.8 pM. 0.25µL compound dilutions (100% DMSO) were added to 9 µL MAGL in assay buffer (50 mM TRIS (GIBCO, 15567-027), 1 mM EDTA (Fluka, 03690-100 mL), 0.01% (v/v) Tween. After shaking, the plate was incubated for 15 min at RT. To start the reaction, 10 µL 2-arachidonoylglycerol in assay buffer was added. The final concentrations in the assay were 50 pM MAGL and 8 µM 2-arachidonoylglyerol. After shaking and 30 min incubation at RT, the reaction was quenched by the addition of 40µL of ACN containing 4µM of d8-arachidonic acid. The amount of arachidonic acid was traced by an online SPE system (Agilent Rapidfire) coupled to a triple quadrupole mass spectrometer (Agilent 6460). A C18 SPE cartridge (G9205A) was used in an ACN/water liquid setup. The mass spectrometer was operated in negative electrospray mode following the mass transitions 303.1 → 259.1 for arachidonic acid and 311.1 → 267.0 for d8-arachidonic acid. The activity of the compounds was calculated based on the ratio of intensities [arachidonic acid / d8-arachidonic acid]. The lowest IC50 value that can be determined with high accuracy is approximately 0.025 nM.

A1 (h) = target: T2, A1 (h) (Homo sapiens, UniProt P30542); test: A1 (h) (agonist radioligand); conditions: read-out: Inhibition A1 (h) (agonist radioligand)
T2 sequence (P30542 1-326): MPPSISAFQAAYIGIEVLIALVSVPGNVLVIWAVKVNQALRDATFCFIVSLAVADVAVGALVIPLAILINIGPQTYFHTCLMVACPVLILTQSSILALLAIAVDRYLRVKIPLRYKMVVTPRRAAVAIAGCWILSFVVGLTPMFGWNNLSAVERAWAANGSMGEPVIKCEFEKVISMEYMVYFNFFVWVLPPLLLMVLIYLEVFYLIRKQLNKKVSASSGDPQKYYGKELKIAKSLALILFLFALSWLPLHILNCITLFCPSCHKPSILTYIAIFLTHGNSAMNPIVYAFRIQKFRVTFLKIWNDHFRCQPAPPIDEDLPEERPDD

[1] = tested on: serine hydrolases in the mouse brain proteome (MBP); test: Multiplex ABPP in mouse brain proteome; type: biochemical; conditions: for labeling selectivity in ABPP (covalent probes): mouse brain homogenates, broad range of concentrations; for selectivity in competitive ABPP (reversible probes): mouse brain proteome, membrane and cytosolic fraction, 1 μM
Description: K = [L][P] = 0.5 [L]T (FP50 − 0.5 [L]T) = FP − 0.5 [L] […]
Mouse brain sample preparation
Mouse tissues were isolated according to guidelines approved by the ethical committee of Leiden University. Male mouse brain (27 weeks old) was homogenized with glass beads (2x 1 min, bullet blender, speed 8) using cold lysis buffer (20 mM Hepes pH 7.2, 1 mM MgCl 2, 2 U/mL Benzonase). The membrane and cytosol were separated by centrifugation. The membrane fraction was resuspended in Hepes/DTT buffer. Protein concentration was determined with Bradford Assay, and samples were diluted to a final concentration of 2.0 mg/mL. Samples were snap -frozen in liquid nitrogen and stored at -80 °C until further use.
Lysate (19 µL, 2 µg/µL) was thawed on ice. For comparative ABPP (irreversible probes), 1 µL of probe (20x stock in DMSO) or pure DMSO was added to the sample, vortexed briefly, and in cubated for 30 minutes at RT. For competitive ABPP (reversible probes), 0.5 µL of the reversible probe (40x stock in DMSO) or pure DMSO (as vehicle) was added to the sample, vortexed briefly, and incubated for 30 […]
minutes at RT. Subsequently, 0.5 µL MB064 (40x stock in DMSO) was added to the proteome sample, vortexed briefly, and incubated for 10 minutes at RT, after which 0.5 µL FP-Bodipy-FL (40x stock in DMSO) was added, vortexed briefly and incubated for 10 minutes at RT. The final volume was 20 - 20.5 µL (5 - 7.5% DMSO). The reaction was quenched by the addition of 7.5 µL of 4*Laemmli-buffer (final concentrations: 60 mM Tris (pH 6.8), 2% (w/v) SDS, 10% (v/v) glycerol, 1.25% (v/v) β-mercaptoethanol, 0.01% (v/v) bromophenol blue). 10 µL (14 µg protein) of the quenched reaction mixture was resolved on 10% acrylamide SDS-PAGE (180 V, 75 min). Fluorescence was measured using a Biorad ChemiDoc MP system (fluorescence channels Cy2, Cy3, Cy5). Gels were then stained using coomassie staining and imaged for protein loading control. Labeling of the respective proteins via MB064 and FP-BODIPY was visualized in two separate channels. […]
Activity based protein profiling (ABPP)
PBMCs were thawed, washed with 1 x PBS and equal amounts of cells were exposed to DMSO (D2650; Sigma-Aldrich) or MAGL inhibitor PF (PF-06795071) in DMSO for 30 min at room temperature with concentrations ranging from 1 nM to 1000 nM. Cells were washed with 1 x PBS and lysed in ice -cold lysis buffer (ab156035; Abcam), lysates were centrifuged at 14,000 x g for 15 minutes at 4°C and supernatants were collected. For ABPP experiments, cell lysates containing equal amounts of protein were incubated with the appropriate concentration of activity -based probe for 30 min at room temperature. The reaction was quenched for 30 min by adding SDS -PAGE loading buffer (NP0007, Thermo). Samples were then separated by SDS-PAGE and bands were detected ChemiDoc Imager (Bio-Rad Laboratories). Following detection, gels were stained with SimplyBlue™ SafeStain (LC6060, Thermo) for 1 hour with gentle agitation and excess stain was removed by destaining in ddH2O for 1 h with gentle agitation. Gels were imaged and protein bands were quantified using Image Lab software (Bio-Rad Laboratories).

[2] = purified cynomolgus monkey MAGL, native MS substrate assay, read-out: IC50 cMAGL

Sequence of GSK3beta (h) (P49841 whole entry): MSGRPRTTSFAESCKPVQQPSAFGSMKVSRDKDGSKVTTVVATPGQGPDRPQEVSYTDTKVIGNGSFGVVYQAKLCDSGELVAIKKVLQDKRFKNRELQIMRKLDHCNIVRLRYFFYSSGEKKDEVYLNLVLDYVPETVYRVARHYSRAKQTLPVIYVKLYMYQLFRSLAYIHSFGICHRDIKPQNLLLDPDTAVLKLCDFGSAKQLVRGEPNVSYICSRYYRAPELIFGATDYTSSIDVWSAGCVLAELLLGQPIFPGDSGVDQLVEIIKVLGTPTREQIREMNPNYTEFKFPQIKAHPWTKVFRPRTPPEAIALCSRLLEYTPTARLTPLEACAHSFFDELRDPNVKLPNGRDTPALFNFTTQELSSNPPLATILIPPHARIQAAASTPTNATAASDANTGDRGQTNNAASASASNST

O=C(O[C@H](CO)C(F)(F)F)N1CC2(CC(CC3=C4C=CC=[N+]4[B-](F)(F)n4cccc43)C2)C1 [Compound 1]
inhibition at 10 µM (GSK3beta (h)): 3.2%
IC50 (cMAGL; [2]): 0.87 nM
inhibition at 10 µM (A1 (h)): -3.9%
labeling selectivity in ABPP (covalent probes) [1]: only selective irreversible labeling of the two MAGL isoforms

O=C(OC(C(F)(F)F)C(F)(F)F)N1CC2(CC(CC3=C4C=CC=[N+]4[B-](F)(F)n4cccc43)C2)C1 [Compound 2]
inhibition at 10 µM (GSK3beta (h)): -1.7%
IC50 (cMAGL; [2]): 0.24 nM
inhibition at 10 µM (A1 (h)): 4.4%
labeling selectivity in ABPP (covalent probes) [1]: only selective irreversible labeling of the two MAGL isoforms

O=C(OC(C(F)(F)F)C(F)(F)F)N1CC2(CC(CC3=C4C=CC(c5ccc[nH]5)=[N+]4[B-](F)(F)n4cccc43)C2)C1 [Compound 2a]
inhibition at 10 µM (GSK3beta (h)): -1.5%
IC50 (cMAGL; [2]): 0.63 nM
inhibition at 10 µM (A1 (h)): -1%
labeling selectivity in ABPP (covalent probes) [1]: only selective irreversible labeling of the two MAGL isoforms

O=C1CO[C@H]2CCN(C(=O)N3CC4(CC(CC5=C6C=CC=[N+]6[B-](F)(F)n6cccc65)C4)C3)C[C@H]2N1 [Compound 4]
IC50 (cMAGL; [2]): 1.14 nM
selectivity in competitive ABPP (reversible probes) [1]: no other potential off-target detectable

O=C1CO[C@H]2CCN(C(=O)N3CC4(CC(CC5=C6C=CC(c7ccc[nH]7)=[N+]6[B-](F)(F)n6cccc65)C4)C3)C[C@H]2N1 [Compound 4a]
inhibition at 10 µM (GSK3beta (h)): -15%
IC50 (cMAGL): 0.2 nM
inhibition at 10 µM (A1 (h)): 8.7%
selectivity in competitive ABPP (reversible probes) [1]: no other potential off-target detectable

O=C(N1CC2(CC(CC3=C4C=CC=[N+]4[B-](F)(F)n4cccc43)C2)C1)N1CC2(CC(n3cnc(C4CC4)n3)C2)C1 [Compound 5]
inhibition at 10 µM (GSK3beta (h)): -1.2%
IC50 (cMAGL): 0.5 nM
inhibition at 10 µM (A1 (h)): 1.3%
selectivity in competitive ABPP (reversible probes) [1]: no other potential off-target detectable
